The record followed here is patent publication US7705043B2, “Substituted aminodicarboxylic acid derivatives having pharmaceutical properties” (Bayer Schering Pharma Aktiengesellschaft, priority 2001, dated 2010).

Test system in one data set: not given
Experiment: not given
Details: not given
Take `COc1ccc(-c2ccc(COc3cc4c(cc3CCN(CCCCC(=O)O)Cc3ccc(C(=O)O)cc3)CCCC4)cc2)cc1` [Example 13, 4-{[(4-Carboxybutyl)(2-{3-[(4′-methoxy-1,1′-biphenyl-4-yl)methoxy]-5,6,7,8-tetrahydro-2-naphthyl}ethyl)amino]methyl}benzoic acid]: the melting point (in general, the temperature, or range, at which the solid turns liquid) is > 240 °C.

Another data set relates to arteria saphena rings. As to the kind of experiment: Vasorelaxant effect in vitro (phenylephrine-contracted rings of rabbit arteria saphena). Format: cell-based. The note with it: Oryctolagus cuniculus, contraction generated by phenylephrine, concentration reducing height of control contraction by 50%. On the procedure:
Vasorelaxant Effect in Vitro
Rabbits are anesthetized or killed by intravenous injection of thiopental sodium (about 50 mg/kg) and exsanguinated. The arteria saphena is removed and divided into rings 3 mm wide. The individual rings are in each case mounted on a pair of hooks of triangular shape, open at the ends and made of special wire (Remanium®) having a diameter of 0.3 mm. Under tension, each ring is introduced into a 5 ml organ bath containing carbogen-gassed Krebs-Henseleit solution at 37° C. with the following composition (mM): NaCl: 119; KCl: 4.8; CaCl2×2H2O: 1; MgSO4×7H2O: 1.4; KH2PO4: 1.2; NaHCO3: 25; glucose: 10; bovine serum albumin: 0.001%. The force of contraction is detected with Statham UC2 cells, amplified and digitized via A/D converters (DAS-1802 HC, Keithley Instruments, Munich) and recorded in parallel on chart recorders. Contractions are generated by adding phenylephrine.
After several (generally 4) control cycles, the substance to be investigated is added in each further run in increasing dosage in each case, and the height of the contraction reached under the influence of the test substance is compared with the height of the contraction reached in the last preceding run. The concentration necessary to reduce the height of the control value by 50% (IC50) is calculated from this. The standard application volume is 5 μl. The DMSO content in the bath solution corresponds to 0.1%.
With `Cc1sc(C)c(COc2ccc(-c3ccc(Cl)cc3Cl)cc2)c1CCN(CCCCC(=O)O)Cc1ccc(C(=O)O)cc1` [Example 3, 4-({(4-Carboxybutyl)[2-(4-{[(2′,4′-dichloro-1,1′-biphenyl-4-yl)oxy]methyl}-2,5-dimethyl-3-thienyl)ethyl]amino}methyl)benzoic acid], half-maximal inhibition (IC50) required 0.002 µM.
`Cc1sc(C)c(COc2ccc(-c3ccc(C(C)(C)C)cc3)cc2)c1CCN(CCCCC(=O)O)Cc1ccc(C(=O)O)cc1` [Example 9]: the midpoint of inhibition, the IC50, lay at 0.061 µM.
As for `COc1cccc(-c2ccc(OCc3c(C)sc(C)c3CCN(CCCCC(=O)O)Cc3ccc(C(=O)O)cc3)cc2)c1` [Example 10], the IC50 (usually the concentration needed to halve the response being measured) worked out at 0.051 µM.
`COc1ccc(-c2ccc(OCc3c(C)sc(C)c3CCN(CCCCC(=O)O)Cc3ccc(C(=O)O)cc3)cc2)cc1` [Example 5] showed an IC50 of 0.007 µM.
The molecule `COc1ccc(-c2ccc(COc3cc4c(cc3CCN(CCCCC(=O)O)Cc3ccc(C(=O)O)cc3)CCCC4)cc2)cc1` [Example 13, 4-{[(4-Carboxybutyl)(2-{3-[(4′-methoxy-1,1′-biphenyl-4-yl)methoxy]-5,6,7,8-tetrahydro-2-naphthyl}ethyl)amino]methyl}benzoic acid] registered an IC50 of 0.094 µM.
`Cc1ccc(OCc2ccc(-c3ccc(C(F)(F)F)cc3)cc2)c(CCN(CCCCC(=O)O)Cc2ccc(C(=O)O)cc2)n1` [Example 16] registered an IC50 of 0.125 µM.
Molecule `Cc1sc(C)c(COc2ccc(-c3ccc(C(F)(F)F)cc3)cc2)c1CCN(CCCCC(=O)O)Cc1ccc(C(=O)O)cc1` [Example 4] showed an IC50 of 0.022 µM.
